From patent publication US6664242B2 (priority 2000, dated 2003)
Where two headings read alike, the source gives them in different places.

How the values were obtained:
[1] = tested on: metastatic colorectal cancer; conditions: oral capecitabine, first-line, phase III; cited from earlier work
[2] = tested on: early stage HCT-116 colon carcinoma
Procedure: (§1) This efficacy may be quantified, for example by the log10 cells killed, which is determined by the following formula:
(§2) log10 cell killed=T-C(days)/3.32×Td
(§3) A product is considered to be active if the log10 cell kill is greater than or equal to 0.7. A product is considered to be very active is the log10 cell kill is greater than 2.8.
Three dosage levels of capecitabine were given alone on days 18-22 and 25-29. In the combination arm, two semi-simultaneous schedules were investigated.

[3] = tested on: human colon carcinoma strain HCT-116; conditions: for Comments / Log10 cell Kill / T-C (Tumor Growth Delay): days 5-9, 12-16; for activity at the maximum tolerated dose: maximum tolerated doses, p.o., HCT-116 in Swiss-nude mice
Procedure: as §1, §2, §3

[4] = capecitabine 443 mg/kg/adm p.o., days 18-22 & 25-29
[5] = capecitabine 713 mg/kg/adm p.o., days 18-22 & 25-29
[6] = capecitabine 1150 mg/kg/adm p.o., days 18-22 & 25-29
[7] = capecitabine 443 mg/kg/adm p.o.
[8] = capecitabine 713 mg/kg/adm p.o.
[9] = CPT-11 60 mg/kg/adm p.o., days 18-22
[10] = CPT-11 96 mg/kg/adm p.o., days 18-22

CCCCCOC(=O)Nc1nc(=O)n([C@@H]2O[C@H](C)[C@@H](O)[C@H]2O)cc1F [capecitabine, 5′-deoxy-5-fluoro-N-[(pentyloxy)-carbonyl]-cytidine]
efficacy compared with i.v. 5-FU/leucovorin (Mayo Clinic regimen) [1]: superior response rate and at least equivalent survival and time to disease progression
safety profile compared with the Mayo Clinic regimen [1]: more favourable safety profile
Comments [2, 4]: Active
Log10 cell Kill [2, 4]: 2.1
T-C (Tumor Growth Delay) [2, 4]: 26.1 days
Comments [2, 5]: Active
Log10 cell Kill [2, 5]: 2.1
T-C (Tumor Growth Delay) [2, 5]: 25.2 days
Log10 cell Kill [2, 6]: 3.2
T-C (Tumor Growth Delay) [2, 6]: 39.4 days
Comments [3, 7]: Active
Log10 cell Kill [3, 7]: 1.1
T-C (Tumor Growth Delay) [3, 7]: 16.3 days
Comments [3, 8]: Active
Log10 cell Kill [3, 8]: 2.6
T-C (Tumor Growth Delay) [3, 8]: 38.7 days
activity at the maximum tolerated dose [3]: highly active

irinotecan [CPT-11]
Comments [2, 9]: Active
Log10 cell Kill [2, 9]: 1.7
T-C (Tumor Growth Delay) [2, 9]: 21.4 days
Comments [2, 10]: HNTD
Log10 cell Kill [2, 10]: 1.7
T-C (Tumor Growth Delay) [2, 10]: 21.3 days
Comments ([2]; CPT-11 155 mg/kg/adm p.o., days 18-22): Toxic
Comments ([3]; CPT-11 29 mg/kg/adm p.o.): Active
Log10 cell Kill ([3]; CPT-11 29 mg/kg/adm p.o.): 2.1
T-C (Tumor Growth Delay) ([3]; CPT-11 29 mg/kg/adm p.o.): 30.1 days
Comments ([3]; CPT-11 48 mg/kg/adm p.o.): HNTD
Comments ([3]; CPT-11 80 mg/kg/adm p.o.): Toxic
activity at the maximum tolerated dose [3]: highly active
